Data as given in PubChem BioAssay AID256 (DTP/NCI, 2004).
Where “and” joins values, the source holds several entries; their conditions need not be identical. Equal values may be shown once. Inconclusive results and toxic doses are left out. The calls were made as follows: active = survival T/C of 150% or more; inactive = T/C below 125% in these data.

Tested on: CD2F1 mice, L1210 leukemia ip, survival T/C
Assay: NCI In Vivo Anticancer Drug Screen. Data for tumor model L1210 Leukemia (intraperitoneal) in CD2F1 (CDF1) mice
Settings: endpoint: mean survival time, higher = longer survival
Outline: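 Vehicle-treated tumor-bearing mice served as controls (C) for compound-treated mice (T). Reported figure is T divided by C.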

[1] = dose: 25.0 mg/kg/injection, schedule: Q01DX009 (ip), vehicle: saline
[2] = dose: 50.0 mg/kg/injection, schedule: Q01DX009 (ip), vehicle: saline
[3] = dose: 100.0 mg/kg/injection, schedule: Q01DX009 (ip), vehicle: saline
[4] = dose: 100.0 mg/kg/injection, schedule: Q04DX003 (ip), vehicle: saline with Tween-80
[5] = dose: 100.0 mg/kg/injection, schedule: Q04DX003 (ip), vehicle: saline
[6] = dose: 200.0 mg/kg/injection, schedule: Q04DX003 (ip), vehicle: saline
[7] = dose: 400.0 mg/kg/injection, schedule: Q04DX003 (ip), vehicle: saline
[8] = dose: 100.0 mg/kg/injection, schedule: Q01DX009 (ip), vehicle: saline with Tween-80
[9] = dose: 200.0 mg/kg/injection, schedule: Q01DX009 (ip), vehicle: saline with Tween-80
[10] = dose: 12.5 mg/kg/injection, schedule: Q04DX003 (ip), vehicle: saline with Tween-80
[11] = dose: 25.0 mg/kg/injection, schedule: Q04DX003 (ip), vehicle: saline with Tween-80

Measured: T/C

Cc1noc(C)c1CC1(c2ccccc2)CCCCC1=O (stereo unspecified)
inactive: dose: 100.0 mg/kg/injection, schedule: Q01DX001 (ip), vehicle: Klucel (hydroxypropylcellulose) (HPC) 92 % of control | dose: 200.0 mg/kg/injection, schedule: Q01DX001 (ip), vehicle: Klucel (hydroxypropylcellulose) (HPC) 92 % of control | dose: 400.0 mg/kg/injection, schedule: Q01DX001 (ip), vehicle: Klucel (hydroxypropylcellulose) (HPC) 86 % of control

C=CC(=O)NCNC(=O)C=C
inactive: dose: 6.25 mg/kg/injection, schedule: Q01DX009 (ip), vehicle: saline 97 % of control | dose: 12.5 mg/kg/injection, schedule: Q01DX009 (ip), vehicle: saline 101 % of control and 102 % of control | dose: 25.0 mg/kg/injection, schedule: Q01DX009 (ip), vehicle: saline with Tween-80 117 % of control | [1] 97 % of control and 102 % of control | dose: 50.0 mg/kg/injection, schedule: Q01DX009 (ip), vehicle: saline with Tween-80 114 % of control | [2] 117 % of control and 104 % of control | [3] 117 % of control and 98 % of control | dose: 200.0 mg/kg/injection, schedule: Q01DX009 (ip), vehicle: saline 96 % of control

Nc1nc2ccc(CNc3ccc(C(=O)NC(CC(=O)O)C(=O)O)cc3)cc2c(=O)[nH]1 (stereo unspecified)
inactive: dose: 66.0 mg/kg/injection, schedule: Q04DX003 (ip), vehicle: saline with Tween-80 105 % of control | [4] 109 % of control | dose: 150.0 mg/kg/injection, schedule: Q04DX003 (ip), vehicle: saline with Tween-80 105 % of control

CC1CCCN(N=Nc2ccccc2-c2nc(N)c3ccccc3n2)C1 (stereo unspecified)
inactive: dose: 100.0 mg/kg/injection, schedule: Q04DX002 (ip), vehicle: Klucel (hydroxypropylcellulose) (HPC) 88 % of control | dose: 200.0 mg/kg/injection, schedule: Q04DX002 (ip), vehicle: Klucel (hydroxypropylcellulose) (HPC) 92 % of control | dose: 400.0 mg/kg/injection, schedule: Q04DX002 (ip), vehicle: Klucel (hydroxypropylcellulose) (HPC) 95 % of control

Nc1nc(=S)c2ncn(C3OC(CO)C(O)C3O)c2[nH]1 (stereo unspecified)
active: dose: 1.0 mg/kg/injection, schedule: Q01DX005 (ip), vehicle: saline + alcohol 154 % of control | dose: 2.0 mg/kg/injection, schedule: Q01DX005 (ip), vehicle: saline + alcohol 152 % of control | dose: 4.0 mg/kg/injection, schedule: Q01DX005 (ip), vehicle: saline + alcohol 150 % of control | dose: 10.0 mg/kg/injection, schedule: Q03DX003 (ip), vehicle: saline 151 % of control | dose: 10.0 mg/kg/injection, schedule: Q04DX003 (ip), vehicle: saline 163 % of control | dose: 20.0 mg/kg/injection, schedule: Q03DX003 (ip), vehicle: saline 151 % of control | dose: 20.0 mg/kg/injection, schedule: Q04DX003 (ip), vehicle: saline 150 % of control | dose: 40.0 mg/kg/injection, schedule: Q04DX003 (ip), vehicle: saline 164 % of control | dose: 178.0 mg/kg/injection, schedule: Q01DX001 (ip), vehicle: saline 152 % of control | dose: 267.0 mg/kg/injection, schedule: Q01DX001 (ip), vehicle: saline 152 % of control | dose: 400.0 mg/kg/injection, schedule: Q01DX001 (ip), vehicle: saline 159 % of control
inactive: dose: 20.0 mg/kg/injection, schedule: Q01DX007 (ip), vehicle: saline 107 % of control | dose: 37.5 mg/kg/injection, schedule: Q01DX009 (ip), vehicle: saline 113 % of control | dose: 40.0 mg/kg/injection, schedule: Q01DX009 (ip), vehicle: saline 95 % of control | dose: 75.0 mg/kg/injection, schedule: Q01DX009 (ip), vehicle: saline 89 % of control

CCC(=O)C(CC)(c1ccc(OC(C)=O)cc1)c1ccc(OC(C)=O)cc1
inactive: [5] 94 % of control | [6] 96 % of control | [7] 96 % of control

COc1cc(C2=N/C(=C\c3cc(Br)ccc3O)C(=O)O2)cc(OC)c1OC
inactive: dose: 50.0 mg/kg/injection, schedule: Q04DX002 (ip), vehicle: saline with Tween-80 88 % of control | dose: 100.0 mg/kg/injection, schedule: Q04DX002 (ip), vehicle: saline with Tween-80 95 % of control and 100 % of control | dose: 200.0 mg/kg/injection, schedule: Q04DX002 (ip), vehicle: saline with Tween-80 96 % of control | dose: 400.0 mg/kg/injection, schedule: Q04DX002 (ip), vehicle: saline with Tween-80 88 % of control and 100 % of control

CC(O)CNCCNc1ccc(NCCNCC(C)O)c2c1C(=O)c1c(O)ccc(O)c1C2=O (stereo unspecified)
inactive: dose: 0.25 mg/kg/injection, schedule: Q01DX005 (ip), vehicle: water 123 % of control | dose: 0.5 mg/kg/injection, schedule: Q01DX005 (ip), vehicle: water 123 % of control
active: dose: 8.0 mg/kg/injection, schedule: Q01DX005 (ip), vehicle: water 165 % of control

CCOC(=O)/C=C/SCCCN
inactive: [5] 98 % of control | [6] 96 % of control

O=C(N/N=C/c1ccc([N+](=O)[O-])cc1[N+](=O)[O-])c1ccncc1
inactive: dose: 12.5 mg/kg/injection, schedule: Q01DX009 (ip), vehicle: other 95 % of control | dose: 25.0 mg/kg/injection, schedule: Q01DX009 (ip), vehicle: other 91 % of control | dose: 50.0 mg/kg/injection, schedule: Q01DX009 (ip), vehicle: other 91 % of control | dose: 100.0 mg/kg/injection, schedule: Q01DX009 (ip), vehicle: other 89 % of control | dose: 200.0 mg/kg/injection, schedule: Q01DX009 (ip), vehicle: other 93 % of control

O=C(O)CNCC(C(=O)O)C(=O)O
inactive: dose: 25.0 mg/kg/injection, schedule: Q04DX002 (ip), vehicle: saline 96 % of control | dose: 50.0 mg/kg/injection, schedule: Q04DX002 (ip), vehicle: saline 90 % of control | dose: 100.0 mg/kg/injection, schedule: Q04DX002 (ip), vehicle: saline 90 % of control

O=C(/C=C/C(=O)c1ccccc1)c1ccccc1
inactive: dose: 6.25 mg/kg/injection, schedule: Q01DX001 (ip), vehicle: saline with Tween-80 92 % of control | dose: 12.5 mg/kg/injection, schedule: Q01DX001 (ip), vehicle: saline with Tween-80 107 % of control | dose: 25.0 mg/kg/injection, schedule: Q01DX001 (ip), vehicle: saline with Tween-80 96 % of control | dose: 50.0 mg/kg/injection, schedule: Q01DX001 (ip), vehicle: saline with Tween-80 89 % of control | dose: 100.0 mg/kg/injection, schedule: Q01DX001 (ip), vehicle: saline with Tween-80 94 % of control

Nc1ccccc1O
inactive: [8] 114 % of control | [5] 100 % of control | [9] 114 % of control | [6] 96 % of control | [7] 119 % of control

O=C(c1ccc([N+](=O)[O-])cc1)C(Br)C(Br)c1ccnc2ccccc12 (stereo unspecified)
inactive: [10] 92 % of control | [11] 98 % of control | dose: 50.0 mg/kg/injection, schedule: Q04DX003 (ip), vehicle: saline with Tween-80 95 % of control

COc1ccc(CCN(C=O)c2ccc(OC)c(OC)c2)cc1OC
inactive: dose: 12.5 mg/kg/injection, schedule: Q01DX009 (ip), vehicle: water 96 % of control | dose: 25.0 mg/kg/injection, schedule: Q01DX009 (ip), vehicle: water 98 % of control | dose: 50.0 mg/kg/injection, schedule: Q01DX009 (ip), vehicle: water 98 % of control | dose: 100.0 mg/kg/injection, schedule: Q01DX009 (ip), vehicle: water 100 % of control | dose: 200.0 mg/kg/injection, schedule: Q01DX009 (ip), vehicle: water 100 % of control

Clc1c(Br)nc(Br)nc1C(Cl)(Cl)Cl
inactive: dose: 6.25 mg/kg/injection, schedule: Q04DX003 (ip), vehicle: saline with Tween-80 98 % of control | [10] 98 % of control | [11] 98 % of control

O=C(O)/C=C/c1ccc(Cl)cc1Cl
inactive: [4] 95 % of control | dose: 200.0 mg/kg/injection, schedule: Q04DX003 (ip), vehicle: saline with Tween-80 95 % of control | dose: 400.0 mg/kg/injection, schedule: Q04DX003 (ip), vehicle: saline with Tween-80 86 % of control

OCCN=Cc1ccccc1
inactive: [1] 95 % of control | [2] 92 % of control | [3] 97 % of control | [4] 106 % of control

CCOC(=O)NC(=S)Nc1ncn[nH]1
inactive: dose: 25.0 mg/kg/injection, schedule: Q01DX001 (ip), vehicle: carboxymethylcellulose (CMC) 102 % of control | dose: 50.0 mg/kg/injection, schedule: Q01DX001 (ip), vehicle: carboxymethylcellulose (CMC) 97 % of control | dose: 100.0 mg/kg/injection, schedule: Q01DX001 (ip), vehicle: carboxymethylcellulose (CMC) 97 % of control | dose: 200.0 mg/kg/injection, schedule: Q01DX001 (ip), vehicle: carboxymethylcellulose (CMC) 93 % of control

COc1cc(/C=N\N=C\c2ccc(O)c(OC)c2)ccc1O
inactive: [8] 98 % of control | [9] 96 % of control
